Assay results as given in US10995101B2, “2-oxo-thiazole derivatives as A2A inhibitors and compounds for use in the treatment of cancers” (iTeos Therapeutics SA, priority 2017, dated 2021).
“And” between values parts separate entries of the source, which are not always exact repeats. Identical values can stand only once. Like-named read-outs stand apart in the source and are kept apart here.

Columns and labels:
[1] = target: T1, A2A receptor (Homo sapiens, UniProt P29274); experiment: Inhibition of cAMP production in HEK cells; type: cell-based; conditions: HEK-293 cells with A2A receptor
T1 sequence (P29274 whole entry): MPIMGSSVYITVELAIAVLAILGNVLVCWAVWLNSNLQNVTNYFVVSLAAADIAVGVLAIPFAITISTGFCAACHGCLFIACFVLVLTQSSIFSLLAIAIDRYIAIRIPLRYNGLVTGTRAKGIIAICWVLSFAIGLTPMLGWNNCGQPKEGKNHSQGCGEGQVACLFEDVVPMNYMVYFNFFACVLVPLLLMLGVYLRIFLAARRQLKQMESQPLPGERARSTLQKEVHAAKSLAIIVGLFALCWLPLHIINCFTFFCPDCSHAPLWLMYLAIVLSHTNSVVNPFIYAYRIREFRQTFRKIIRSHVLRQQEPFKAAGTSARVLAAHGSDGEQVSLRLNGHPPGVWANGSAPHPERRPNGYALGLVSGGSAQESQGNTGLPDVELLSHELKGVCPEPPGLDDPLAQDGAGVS

[2] = Concentration in brain and cerebrospinal fluid compared to plasma; type: in vivo, mice; conditions: for concentration at 0.5 h / Kp at 0.5 h / plasma concentration at 0.5 h: female, Balb-c, mouse, po; for plasma concentration at 0.5 h: Plasma Concentration (ng/mL)
Protocol: 7-9 weeks old female Balb-c mice (obtained from SLAC Laboratory Animal Co. Ltd., Shanghai, China or SIPPR-B&K Laboratory Animal Co. Ltd., Shanghai, China) were dosed orally at a dose of 10 mg/kg, as a 1.00 mg/mL suspension in 10% DMSO+10% solutol+80% water, adjusted to pH 3-4 (homogenous opaque suspension).
Animals were fasted at least 12 hours prior to the administration. All animals had access to Certified Rodent Diet (Catalog # M01-F, SLAC Laboratory Animal Cl. Ltd., Shanghai, China) ad libitum 4 hours post dosing. Serial bleeding (about 30 μL blood per time point) were performed from submadibular or saphenous vein. Those samples were transferred into prechilled microcentrifuge tubes containing 2 μL of K2EDTA (0.5M) as anti-coagulant and placed on wet ice for further treatment. Immediately after blood collection, the whole brain was harvested immediately at the designed time points. At selected timepoints post-dose, CSF was collected from cisterna magna.
Blood samples were processed for plasma by centrifugation at approximately 4° C., 3000 g 15 min within half an hour of collection. Plasma samples were stored in polypropylene tubes, quick frozen over dry ice and kept at −70° C. until LC/MS/MS analysis. Brain samples were weighed, rinsed in cold distilled water to remove blood, and homogenized using pre-cooled water at the ratio of 1:4 (1 g brain used 4 mL water). And the brain homogenization was kept at −70° C. until LC/MSMS analysis. CSF was quick frozen over dry ice and kept at −70° C. until LC/MS/MS analysis.

[3] = target: A2AR (Mus musculus, UniProt Q60613); conditions: 10 mg/kg PO 30 min prior to CGS21680; score observed in at least 60-100% of mice for 30 minutes
Sequence of A2AR (Q60613 whole entry): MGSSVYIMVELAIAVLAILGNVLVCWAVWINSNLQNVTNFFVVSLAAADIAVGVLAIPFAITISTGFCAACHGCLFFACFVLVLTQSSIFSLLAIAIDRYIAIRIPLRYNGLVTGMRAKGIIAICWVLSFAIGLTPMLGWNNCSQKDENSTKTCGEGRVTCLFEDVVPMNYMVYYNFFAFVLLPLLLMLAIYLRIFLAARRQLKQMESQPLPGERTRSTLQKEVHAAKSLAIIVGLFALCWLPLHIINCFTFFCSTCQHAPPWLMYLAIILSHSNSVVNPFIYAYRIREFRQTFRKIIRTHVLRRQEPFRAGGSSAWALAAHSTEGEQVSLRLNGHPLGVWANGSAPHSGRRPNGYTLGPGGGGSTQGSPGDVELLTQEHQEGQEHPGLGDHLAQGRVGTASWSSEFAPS

[4] = target: T1, A2A receptor; experiment: Human IL-2 T cell assay (restoration of IL-2 production in CGS-21680-treated CD3+ T cells); type: cell-based; parameters: endogenous in cells; host or cells: human CD3+ T cells isolated from venous blood of healthy volunteers; conditions: restoration of IL-2 production, human CD3+ T cells, anti-CD3/CD28 beads, 72 hours
Text: When T-cells are activated, they produce pro-inflammatory cytokines. When the A2A receptor is activated in T cells, the amount of cytokines produced in response to stimulation of T-cells is reduced.
Venous blood from healthy volunteers, all of whom signed an informed consent approved by the Ethics Committee (FOR-UIC-BV-050-01-01 ICF_HBS_HD Version 5.0), was obtained via ImmuneHealth (Centre Hospitalier Universitaire Tivoli, La Louviere, Belgium). Mononuclear cells were collected by density gradient centrifugation, using SepMate-50 tubes (StemCell Technologies, Grenoble, France) and Lymphoprep (Axis-shield, Oslo, Norway) according to the manufacturer's instructions. CD3+ T cells were isolated by immunomagnetic negative selection, using the EasySep Human T Cell Isolation Kit (StemCell Technologies) as per manufacturer's instructions. CD3+ T cells were stored in heat inactivated foetal bovine serum (hiFBS; Gibco, ThermoFisher Scientific, Merelbeke, Belgium) containing 10% DMSO in liquid nitrogen.
Human purified CD3+ T cells were thawed and washed twice with RPMI1640 medium (with UltraGlutamine; Lonza, Verviers, Belgium) supplemented with 1× non-essential amino acids (Lonza), 2% Pen/Strep (Lonza) and 1 mM Sodium Pyruvate (Gibco) (complete media), containing 10% hiFBS. The cells were suspended either in complete media containing 20% hiFBS or in 100% heat inactivated human serum (hiHS; Sigma-Aldrich, Diegem, Belgium). Cells were activated by adding anti-CD3 and anti-CD28 coated microbeads (Dynabeads human T-activator CD3/CD28; Life Technologies, Paisley, UK), suspended either in complete media containing 20% hiFBS or in 100% hiHS. […] Serial dilutions of the compounds of the present invention were prepared and added to the wells. The cells were placed in a 37° C. humidified tissue culture incubator with 5% CO2 for 72 hours. After 72 hours, supernatants were sampled and IL-2 was quantified using the IL-2 (human) AlphaLISA Biotin-Free Detection Kit (AL333F; Perkin-Elmer, Zaventem, Belgium), according to the manufacturer's instructions.

[5] = individual mice, PO 10 mg/kg, 0.500 h, 10 mg/kg

Q: For `NC(=O)COc1cc(N2CCN(CCn3c(=O)sc4c3nc(N)n3nc(-c5ccco5)nc43)CC2)c(F)cc1F` [Compound 4, 2-(5-(4-(2-(5-amino-8-(furan-2-yl)-2-oxothiazolo[5,4-e][1,2,4]triazolo [1,5-c]pyrimidin-3(2H)-yl)ethyl)piperazin-1-yl)-2,4-difluorophenoxy)acetamide], which IC50 ([1]; IC50 (nM) (3 nM NECA as agonist, 0.1% BSA), 3 nM NECA as agonist, 0.1% BSA) is on record?
A: 0.5 nM

Q: And the IC50 ([1]; IC50 (nM) (5 nM NECA as agonist, 2% HSA), 5 nM NECA as agonist, 2% HSA)?
A: 2 nM

Q: And the IC50 ([1]; IC50 (nM) (5 μM Adenosine as agonist, 2.0% HSA), 5 μM Adenosine as agonist, 2.0% HSA)?
A: 49 nM

Q: What about the concentration at 0.5 h ([2]; CSF, 10 mg/kg, individual mice, PO 10 mg/kg, 0.500 h, read-out: CSF Concentration) of the same compound?
A: < 3 ng/mL

Q: And the Kp at 0.5 h ([2]; CSF, 10 mg/kg, individual mice, PO 10 mg/kg, 0.500 h, read-out: CSF/Plasma Ratio)?
A: < 0.005

Q: And the concentration at 0.5 h ([2]; CSF, 10 mg/kg, mean of 3 mice, PO 10 mg/kg, 0.500 h, read-out: CSF Concentration (ng/mL), Mean)?
A: < 3 ng/mL

Q: What about the Kp at 0.5 h ([2]; CSF, 10 mg/kg, mean of 3 mice, PO 10 mg/kg, 0.500 h, read-out: CSF/Plasma Ratio, Mean) of the same compound?
A: < 0.004

Q: And the concentration at 0.5 h ([2]; brain, 10 mg/kg, individual mice, PO 10 mg/kg, 0.500 h, read-out: Brain Concentration)?
A: < 15 ng/g

Q: And the Kp at 0.5 h ([2]; brain, 10 mg/kg, individual mice, PO 10 mg/kg, 0.500 h, read-out: Brain/Plasma Ratio)?
A: < 0.026

Q: What about the concentration at 0.5 h ([2]; brain, 10 mg/kg, mean of 3 mice, PO 10 mg/kg, 0.500 h, read-out: Brain Concentration (ng/g), Mean) of the same compound?
A: < 16 ng/g

Q: And the Kp at 0.5 h ([2]; brain, 10 mg/kg, mean of 3 mice, PO 10 mg/kg, 0.500 h, read-out: Brain/Plasma Ratio, Mean)?
A: < 0.021

Q: What about the plasma concentration at 0.5 h ([2]; 10 mg/kg, Mean, mean of 3 mice, PO 10 mg/kg, 0.500 h) of the same compound?
A: 779 ng/mL

Q: What about the plasma concentration at 0.5 h ([2]; 10 mg/kg, individual mice, PO 10 mg/kg, 0.500 h, female Balb-c mice) of the same compound?
A: 576 ng/mL

Q: And the “CSF Concentration” value ([2]; individual mice, PO 10 mg/kg, 0.500 h)?
A: <3 ng/mL

Q: And the “Plasma Concentration” value ([2]; individual mice, PO 10 mg/kg, 0.500 h, female Balb-c mice, 10 mg/kg)?
A: 995 ng/mL and 765 ng/mL

Q: What about the “Brain Concentration” value [2, 5] of the same compound?
A: 16.9 ng/g and <15 ng/g

Q: What about the “Brain/Plasma Ratio” value [2, 5] of the same compound?
A: 0.0169 and <0.020

Q: And the “CSF/Plasma Ratio” value [2, 5]?
A: <0.003 and <0.004

Q: What about the “quantity found in brain or CSF” value ([2]; mice, oral 10 mg/kg) of the same compound?
A: no measurable quantity

Q: What about the “Score (locomotion / immobility)” value [3] of the same compound?
A: +++

Q: What about the IC50 ([4]; IC50 (nM) (500 nM CGS-21680 as agonist, 10% FBS), 500 nM CGS-21680, 10% FBS) of the same compound?
A: 0.3 nM

Q: What about the IC50 ([4]; IC50 (nM) (5000 nM CGS-21680 as agonist, 50% HSA), 5000 nM CGS-21680, 50% HSA) of the same compound?
A: 63 nM
